Laboratory results from EP4310070A1, “USE OF TRANS AMANTADINE DERIVATIVE OR SALT THEREOF” (Chengdu Shibeikang Biomedical Technology Co., Ltd., priority 2021, dated 2022).
Structures can show the parent of a compound that is named as a salt. Marks after values point to notes of the source that are not given here.

What was measured:
[1] = tested on: ammonia-induced coughing response in mice; assay: cough response of mice induced by ammonia water; assay type: in vivo, KM mice; conditions: for reduction of the number of coughs: compared with the model control group (P<0.05 or P<0.01), 15 mg/kg free base i.v.; for Number of coughs (times): within 3 minutes after concentrated ammonia, 15 mg/kg in terms of free base i.v., 30 minutes after administration, x ± s, n=10, model control 41.7±8.76
Description: 50 KM mice, weighing 18-22g, of both sexes were used and randomly divided into 5 groups, a model control group, a Formula I compound group (15 mg/kg, in terms of free base), a Formula V compound group (15 mg/kg, in terms of free base), a Comparative Example group (15 mg/kg, in terms of free base), and an ambroxol hydrochloride group (15 mg/kg, in terms of free base), 10 animals in each group, and were administered intravenously (dissolved in normal saline by adjusting pH or directly dissolved in normal saline). 30 minutes after the administration, the mice were put in an inverted beaker with a volume of 500ml and a cotton ball inside. Timing was started once 0.2ml of concentrated ammonia/mouse was added onto the cotton ball. The number of coughs of each animal within 3 minutes was observed and recorded. Here, the medicament used for the Comparative Example group was the 4-[(2-amino-3,5-dibromobenzyl)amino]adamantan-1-ol hydrochloride (racemic) prepared in Comparative Example 1. Table 3. Effect on ammonia-induced coughing response in mice (x ± s, n=10)

[2] = tested on: expectoration amount by rat capillary tube expectoration; assay: rat capillary sputum excretion test; assay type: in vivo, SD rats; conditions: length of liquid in capillary tube within 90 minutes, 15 mg/kg in terms of free base via tail vein, 30 minutes after administration, n=10, vehicle control 22.7±4.41
Description: 180-220g SD rats of both sexes were used and divided into random groups, with 10 rats in each group, namely a vehicle control group, a Formula I compound group (15 mg/kg, in terms of free base), a Formula V compound group (15 mg/kg, in terms of free base), a Comparative Example group (15 mg/kg, in terms of free base) and ambroxol hydrochloride (15 mg/kg, in terms of free base). The rats were fasted and restrained from water for 12 hours before testing the amount of sputum excretion, and administered the respective medicaments via the tail vein (dissolved in normal saline by adjusting pH or directly dissolved in normal saline). 30 minutes after the administration, they were anesthetized by intraperitoneally injecting 1g/kg of a urethane solution in saline, fixed in supine position, and the trachea was separated after cutting through neck skin. A small hole was pierced by using a syringe needle between the two cartilage rings on the lower edge of the thyroid cartilage, and a capillary tube (with an inner diameter of 0.8mm, and a length of 10cm) was inserted centripetally into the trachea. Sputum was collected while adjusting the angle between the capillary tube and the trachea, and the total number of the length of liquids in the capillary tube (mm) was used to evaluate the expectoration effect. The amount of expectoration of the rats within 90 minutes was recorded. Here, the medicament used for the Comparative Example group was the 4-[(2-amino-3,5-dibromobenzyl)amino]adamantan-1-ol hydrochloride (racemic) prepared in Comparative Example 1. Table 4. Results of the effect on the expectoration amount by rat capillary tube expectoration

[3] = tested on: tracheal phenol red secretion in mice; assay: phenol red expectoration test in mice; assay type: in vivo; conditions: colorimetric measurement at 546nm; 30 mg/kg in terms of free base via tail vein 2 times in a row; x ± s, n=12; control 0.095±0.022
Description: Experimental method: 60 mice of both sexes were used and randomly divided into a control (normal saline) group, a Formula I compound group (30 mg/kg, in terms of free base), a Formula V compound group (30 mg/kg, in terms of free base), a Comparative Example group (30 mg/kg, in terms of free base) and ambroxol hydrochloride (30 mg/kg, in terms of free base), 12 rats in each group; the respective medicaments were administered via the tail vein (dissolved in normal saline by adjusting pH or directly dissolved in normal saline) 2 times in a row. 15 minutes after the last administration to the mice, a 5% phenol red solution in normal saline (0.5g/kg) was subcutaneously injected. After 30 minutes, the mice were sacrificed and a section of the trachea was cut from below the thyroid cartilage to the trachea branch. The section was placed in a test tube containing 1 mL of normal saline, shaken and soaked for 30 minutes, and then centrifuged for 10 minutes (3000 r/min). The supernatant was transferred to another test tube, 0.1 mL of 1M NaOH solution was added, and shaken uniformly for a colorimetric measurement at 546nm. The effects of each group on the tracheal phenol red secretion in mice were statistically compared, and the experimental results obtained are shown in Table 5 below. Here, the medicament used for the Comparative Example group was the 4-[(2-amino-3,5-dibromobenzyl)amino]adamantan-1-ol hydrochloride (racemic) prepared in Comparative Example 1. Table 5. Effects on tracheal phenol red secretion in mice (x ± s)

[4] = tested on: acute lung injury in mice induced by oleic acid; assay: acute lung injury test in mouse (oleic acid-induced, histological grading of lung pathology); assay type: in vivo, KM mice; conditions: for protective effect against acute lung injury in mice induced by oleic acid: compared with the model control group (P<0.05 or P<0.01), 40 mg/kg free base i.v.; for Overall lung pathology score: group sum, weighted (alveolar wall thickening x 1, inflammatory cell infiltration x 1, lung tissue necrosis x 3), 40 mg/kg free base i.v. once a day for 4 times, model control 81, normal control 21; for Alveolar wall thickening Level 0 / Inflammatory cell infiltration Level 0 / Lung tissue necrosis Level 0: number of mice (11 per group) at score 0 (No pathological change); for Alveolar wall thickening Level 0 / Inflammatory cell infiltration Level 0 / Lung tissue necrosis Level 0 / Alveolar wall thickening Level 1 / Inflammatory cell infiltration Level 1 / Lung tissue necrosis Level 1 / Alveolar wall thickening Level 2 / Inflammatory cell infiltration Level 2 / Lung tissue necrosis Level 2 / Alveolar wall thickening Level 3 / Inflammatory cell infiltration Level 3 / Lung tissue necrosis Level 3 / Alveolar wall thickening Level 4 / Inflammatory cell infiltration Level 4 / Lung tissue necrosis Level 4: 40 mg/kg in terms of free base, intravenously once a day for 4 times, oleic acid 300 mg/kg i.v.; for Alveolar wall thickening Level 1 / Inflammatory cell infiltration Level 1 / Lung tissue necrosis Level 1: number of mice (11 per group) at score 1 (Occasional); for Alveolar wall thickening Level 2 / Inflammatory cell infiltration Level 2 / Lung tissue necrosis Level 2: number of mice (11 per group) at score 2 (Mild); for Alveolar wall thickening Level 3 / Inflammatory cell infiltration Level 3 / Lung tissue necrosis Level 3: number of mice (11 per group) at score 3 (Moderate); for Alveolar wall thickening Level 4 / Inflammatory cell infiltration Level 4 / Lung tissue necrosis Level 4: number of mice (11 per group) at score 4 (Severe)
Description: KM mice, weighing 18-22g, with all 66 being males, were used and randomly grouped into a normal control group, a model control group, a Formula I compound group (40 mg/kg, in terms of free base), a Formula V compound group (40 mg/kg, in terms of free base), a Comparative Example group (40 mg/kg, in terms of free base), and an ambroxol hydrochloride group (40 mg/kg, in terms of free base), 11 animals in each group, and each group was administered intravenously (dissolved in normal saline by adjusting pH or directly dissolved in normal saline) once a day for 4 times, while the model control group and the normal control group were given an equivalent amount of normal saline. 30 minutes after the last administration, except for the normal control group, all other mice were administered 300 mg/kg oleic acid intravenously (prepared into the desired concentration with sterile saline containing 0.1% […] immediately before use), and the vehicle control group was given an equivalent volume of 0.1% BSA saline. The mice were sacrificed 4 hours after the last administration, and the right lobes of the lungs were removed and fixed in a 10% formaldehyde solution. After dehydration, embedding in paraffin, dissection, and staining with HE, they were observed under a microscope for pathological changes of the lung tissues. Here, the medicament used for the Comparative Example group was the 4-[(2-amino-3,5-dibromobenzyl)amino]adamantan-1-ol hydrochloride (racemic) prepared in Comparative Example 1. Table 1. Criteria for histological grading of lung injury
The above indicators are multiplied by different weighting numbers depending on the significance of the pathology (alveolar wall thickening × 1, inflammatory cell infiltration × 1, lung tissue necrosis × 3), and finally added up to obtain an overall lung pathology score. Table 2. Test results of lung pathologies of each group

Compound	reduction of the number of coughs [1]	Number of coughs (times) [1] [times]	Expectoration amount in 90min (mm) [2] [mm]	Phenol red secretion (OD number) [3] [OD number]	protective effect against acute lung injury in mice induced by oleic acid [4]	Alveolar wall thickening Level 0 [4]	Inflammatory cell infiltration Level 0 [4]	Lung tissue necrosis Level 0 [4]	Alveolar wall thickening Level 1 [4]	Inflammatory cell infiltration Level 1 [4]	Lung tissue necrosis Level 1 [4]	Alveolar wall thickening Level 2 [4]	Inflammatory cell infiltration Level 2 [4]	Lung tissue necrosis Level 2 [4]	Alveolar wall thickening Level 3 [4]	Inflammatory cell infiltration Level 3 [4]	Lung tissue necrosis Level 3 [4]	Alveolar wall thickening Level 4 [4]	Inflammatory cell infiltration Level 4 [4]	Lung tissue necrosis Level 4 [4]	further results
Cl.Nc1c(Br)cc(Br)cc1CNC1C2CC3CC1CC(O)(C3)C2 (racemic) [Compound of Comparative Example, 4-[(2-amino-3,5-dibromobenzyl)amino]adamantan-1-ol hydrochloride (racemic)]	significantly reduce the number of coughs	25.7±6.40	39.9±5.43	0.223±0.058	definite protective effect	1	1	8	2	6	2	8	4	1	0	0	0	0	0	0	Overall lung pathology score [4]: 44*
Nc1c(Br)cc(Br)cc1CN[C@H]1CC[C@H](O)CC1 [Ambroxol hydrochloride]	significantly reduce the number of coughs	32.7±8.55	30.1±4.95	0.135±0.023		2	0	6	4	4	4	4	7	0	1	0	1	0	0	0	Overall lung pathology score [4]: 54
Nc1c(Br)cc(Br)cc1CN[C@@H]1[C@@H]2C[C@@H]3C[C@H]1C[C@@](O)(C3)C2 [Compound of Formula I, trans-4-[(2-amino-3,5-dibromobenzyl)amino]adamantan-1-ol]	significantly reduce the number of coughs			0.279±0.063	definite protective effect	1	3	11	7	7	0	3	1	0	1	0	0	0	0	0	Number of coughs (times) ([1]; 15 mg/kg): 19.2±5.98 times; Expectoration amount in 90min (mm) ([2]; 15 mg/kg): 45.9±6.79 mm; Overall lung pathology score ([4]; 40 mg/kg): 23^**▲
